Test results published in patent publication EP1333824B1, “TREATMENT OF SEXUAL DYSFUNCTION WITH BOMBESIN RECEPTOR ANTAGONISTS” (Warner-Lambert Company LLC, priority 2000, dated 2002).

Biological target: T1, human GRP receptor (BB2) (Homo sapiens, UniProt P30550)
T1 construct: expressed in transfected cells
Assay: BB2 binding assay ([125I][Tyr4]bombesin, CHO-K1 cell membranes)
Method: In the following experiments, measurement of BB1 and BB2 binding was as follows. […] The final pellet was resuspended in assay buffer to a final cell concentration of 1.5 × 10^5/mL. […] Nonspecific binding was defined by 1µM bombesin. […] Radioactivity bound was determined using a gamma counter.
All competition data was analysed using nonlinear regression utilizing iterative curve-plotting procedures in Prism® (GraphPad Software Inc., San Diego, USA).

[1] = Table 7, N-terminal sulfonamide derivatives

T1 sequence (P30550 whole entry): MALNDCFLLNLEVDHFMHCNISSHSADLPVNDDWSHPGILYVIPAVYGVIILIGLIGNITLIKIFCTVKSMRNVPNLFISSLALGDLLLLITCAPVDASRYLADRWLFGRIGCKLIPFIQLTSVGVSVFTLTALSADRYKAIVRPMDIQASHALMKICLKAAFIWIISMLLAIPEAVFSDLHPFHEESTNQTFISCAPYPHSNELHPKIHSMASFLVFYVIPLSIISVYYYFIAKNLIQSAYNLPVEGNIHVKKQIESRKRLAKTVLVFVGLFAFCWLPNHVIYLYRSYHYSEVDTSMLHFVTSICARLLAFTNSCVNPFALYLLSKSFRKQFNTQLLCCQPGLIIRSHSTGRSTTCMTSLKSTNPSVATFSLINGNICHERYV

Compound | IC50 [1] [µM] | other results
C[C@@](Cc1c[nH]c2ccccc12)(NS(=O)(=O)c1c(Cl)cc(Cl)cc1Cl)C(=O)NCC1(c2ccccn2)CCCCC1 [Example 148, (S)-3-(1H-Indol-3-yl)-2-methyl-N-(1-pyridin-2-yl-cyclohexylmethyl)-2-(2,4,6-trichloro-benzenesulfonylamino)-propionamide] | – | BB2 IC50 [1]: Ia
Cc1cc(S(=O)(=O)N[C@@](C)(Cc2c[nH]c3ccccc23)C(=O)NCC2(c3ccccn3)CCCCC2)c(Cl)cc1Cl [Example 165, (S)-2-(2,4-Dichloro-5-methyl-benzenesulfonylamino)-3-(1H-indol-3-yl)-2-methyl-N-(1-pyridin-2-yl-cyclohexylmethyl)-propionamide] | > 10 | –
CN(C)c1cccc2c(S(=O)(=O)N[C@@](C)(Cc3c[nH]c4ccccc34)C(=O)NCC3(c4ccccn4)CCCCC3)cccc12 [Example 117, (S)-2-(5-Dimethylamino-naphthalene-1-sulfonylamino)-3-(1H-indol-3-yl)-2-methyl-N-(1-pyridin-2-yl-cyclohexylmethyl)-propionamide] | > 10 | –
C[C@@](Cc1c[nH]c2ccccc12)(NS(=O)(=O)c1cccs1)C(=O)NCC1(c2ccccn2)CCCCC1 [Example 119, (S)-3-(1H-Indol-3-yl)-2-methyl-N-(1-pyridin-2-yl-cyclohexylmethyl)-2-(thiophene-2-sulfonylamino)-propionamide] | – | BB2 IC50 [1]: Ia
Cc1noc(C)c1S(=O)(=O)N[C@@](C)(Cc1c[nH]c2ccccc12)C(=O)NCC1(c2ccccn2)CCCCC1 [Example 136, (S)-2-(3,5-Dimethyl-isoxazole-4-sulfonylamino)-3-(1H-indol-3-yl)-2-methyl-N-(1-pyridin-2-yl-cyclohexylmethyl)-propionamide] | > 10 | –
C[C@@](Cc1c[nH]c2ccccc12)(NS(=O)(=O)c1ccc([N+](=O)[O-])cc1[N+](=O)[O-])C(=O)NCC1(c2ccccn2)CCCCC1 [Example 162, (S)-2-(2,4-Dinitro-benzenesulfonylamino)-3-(1H-indol-3-yl)-2-methyl-N-(1-pyridin-2-yl-cyclohexylmethyl)-propionamide] | > 10 | –
C[C@@](Cc1c[nH]c2ccccc12)(NS(=O)(=O)c1ccccc1F)C(=O)NCC1(c2ccccn2)CCCCC1 [Example 114, (S)-2-(2-Fluorobenzenesulfonylamino)-3-(1H-indol-3-yl)-2-methyl-N-(1-pyridin-2-yl-cyclohexylmethyl)-propionamide] | > 10 | –
Cc1cc(C(=O)N[C@@](C)(Cc2c[nH]c3ccccc23)C(=O)NCC2(c3ccccn3)CCCCC2)no1 [Example 62, 5-Methyl-isoxazole-3-carboxylic acid {(S)-2-(1H-indol-3-yl)-1-methyl-1-[(1-pyridin-2-yl-cyclohexylmethyl)-carbamoyl]-ethyl}-amide] | – | IC50 (Table 3, N-acyl derivatives): > 10 µM
C[C@@](Cc1c[nH]c2ccccc12)(NS(=O)(=O)Cc1ccccc1[N+](=O)[O-])C(=O)NCC1(c2ccccn2)CCCCC1 [Example 142, (S)-3-(1H-Indol-3-yl)-2-methyl-2-(2-nitro-phenylmethanesulfonylamino)-N-(1-pyridin-2-yl-cyclohexylmethyl)-propionamide] | > 10 | –
CC(C)(C)c1ccc(S(=O)(=O)N[C@@](C)(Cc2c[nH]c3ccccc23)C(=O)NCC2(c3ccccn3)CCCCC2)cc1 [Example 164, (S)-2-(4-tert-Butyl-benzenesulfonylamino)-3-(1H-indol-3-yl)-2-methyl-N-(1-pyridin-2-yl-cyclohexylmethyl)-propionamide] | > 10 | –
C[C@@](Cc1c[nH]c2ccccc12)(NS(=O)(=O)c1ccc(S(C)(=O)=O)cc1)C(=O)NCC1(c2ccccn2)CCCCC1 [Example 163, (S)-3-(1H-Indol-3-yl)-2-(4-methanesulfonyl-benzenesulfonylamino)-2-methyl-N-(1-pyridin-2-yl-cyclohexylmethyl)-propionamide] | > 10 | –
C[C@@](Cc1c[nH]c2ccccc12)(NS(=O)(=O)c1ccc(Cl)s1)C(=O)NCC1(c2ccccn2)CCCCC1 [Example 128, (S)-2-(5-Chloro-thiophene-2-sulfonylamino)-3-(1H-indol-3-yl)-2-methyl-N-(1-pyridin-2-yl-cyclohexylmethyl)-propionamide] | > 10 | –
C[C@@](Cc1c[nH]c2ccccc12)(NS(=O)(=O)c1cc([N+](=O)[O-])ccc1Cl)C(=O)NCC1(c2ccccn2)CCCCC1 [Example 147, (S)-2-(2-Chloro-5-nitro-benzenesulfonylamino)-3-(1H-indol-3-yl)-2-methyl-N-(1-pyridin-2-yl-cyclohexylmethyl)-propionamide] | – | BB2 IC50 [1]: Ia
C[C@@](Cc1c[nH]c2ccccc12)(NC(=O)c1ccccn1)C(=O)NCC1(c2ccccn2)CCCCC1 [Example 57, Pyridine-2-carboxylic acid {(S)-2-(1H-indol-3-yl)-1-methyl-1-[(1-pyridin-2-yl-cyclohexylmethyl)-carbamoyl]-ethyl}-amide] | – | IC50 (Table 3, N-acyl derivatives): > 10 µM
Cc1nc(S(=O)(=O)N[C@@](C)(Cc2c[nH]c3ccccc23)C(=O)NCC2(c3ccccn3)CCCCC2)cn1C [Example 144, (S)-2-(1,2-Dimethyl-1H-imidazole-4-sulfonylamino)-3-(1H-indol-3-yl)-2-methyl-N-(1-pyridin-2-yl-cyclohexylmethyl)-propionamide] | > 10 | –
C[C@@](Cc1c[nH]c2ccccc12)(NC(=O)OCc1ccc(Cl)cc1Cl)C(=O)NCC1(c2ccccn2)CCCCC1 [Example 104, {(S)-2-(1H-Indol-3-yl)-1-methyl-1-[(1-pyridin-2-yl-cyclohexylmethyl)-carbamoyl]-ethyl}-carbamic acid 2,4-dichloro-benzyl ester] | – | IC50 (Table 5, N-terminal urethane derivatives): > 10 µM
CN(C)c1ccccc1C(=O)N[C@@](C)(Cc1c[nH]c2ccccc12)C(=O)NCC1(c2ccccn2)CCCCC1 [Example 48, C-Dimethylamino-N-{(S)-2-(1H-indol-3-yl)-1-methyl-1-[(1-pyridin-2-yl-cyclohexyl-methyl)-carbamoyl]-ethyl}-benzamide] | – | IC50 (Table 3, N-acyl derivatives): > 10 µM
C[C@@](Cc1c[nH]c2ccccc12)(NS(=O)(=O)c1ccc(-c2ccon2)s1)C(=O)NCC1(c2ccccn2)CCCCC1 [Example 141, (S)-3-(1H-Indol-3-yl)-2-(5-isoxazol-3-yl-thiophene-2-sulfonylamino)-2-methyl-N-(1-pyridin-2-yl-cyclohexylmethyl)-propionamide] | > 10 | –
